Experimental data as given in patent US20230121721A1, “MONOACYLGLYCEROL LIPASE INHIBITORS” (STICHTING HET NEDERLANDS KANKER INSTITUUT - ANTONI VAN …, priority 2020, published 2023).

The compounds below were run against T1, hMAGL (MAGL-overexpressing membrane preparations from transiently transfected HEK293T cells) (Homo sapiens, UniProt Q99685) (assay: MAGL activity assay (2-AG hydrolysis, glycerol coupled to Amplifu Red fluorescence)). Settings: hMAGL-overexpressing HEK293T membranes, 25 μM 2-AG substrate, 20 min. inhibitor incubation.
T1 construct: expressed in transfected cells; host or cells: HEK293T (transient transfection), membrane preparations
T1 sequence (Q99685 1-303): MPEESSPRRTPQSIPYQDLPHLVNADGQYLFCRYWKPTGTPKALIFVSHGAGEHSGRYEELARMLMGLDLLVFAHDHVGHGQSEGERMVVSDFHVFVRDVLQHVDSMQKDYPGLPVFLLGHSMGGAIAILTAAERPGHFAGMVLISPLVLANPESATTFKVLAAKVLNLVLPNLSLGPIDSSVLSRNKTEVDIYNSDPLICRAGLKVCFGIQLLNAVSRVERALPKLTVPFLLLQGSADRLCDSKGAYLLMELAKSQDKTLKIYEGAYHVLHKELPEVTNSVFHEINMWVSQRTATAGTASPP
Type: biochemical
Description: The MAGL activity assay is based on the production of glycerol from 2-arachidonoylglycerol (2-AG) hydrolysis by MAGL-overexpressing membrane preparations from transiently transfected HEK293T cells, as previously reported in van der Wel T et al., “A natural substrate-based fluorescence assay for inhibitor screening on diacylglycerol lipase”, J Lipid Res., 2015, 56(4), 927-35. The produced glycerol is coupled to the oxidation of commercially available Amplifu™ Red (Sigma-Aldrich Chemie N.V., Zwijndrecht, Netherlands) via a multi-enzyme cascade, resulting in a fluorescent signal from the dye resorufin.
Standard assays were performed in HEMNB buffer (50 mM HEPES pH 7.4, 1 mM EDTA, 5 mM MgCl2, 100 mM NaCl, 0.5% (w/v) BSA) in black, flat bottom 96-wells plates. Final protein concentration of membrane preparations from overexpressing hMAGL HEK293T cells was 1.5 μg/mL (0.3 μg per well). Inhibitors were added from 40× concentrated DMSO stocks. […] Final assay concentrations: 0.2 U/mL GK, GPO and HRP, 0.125 mM ATP, 10 μM Amplifu™ Red, 25 μM 2-AG, 5% DMSO, 0.5% ACN in a total volume of 200 μL.
For IC50 determination, the MAGL-overexpressing membranes were incubated with different inhibitor concentrations. Slopes of corrected fluorescence in time were determined in the linear interval of t=10 to t=35 min and then scaled to the corrected positive control of hMAGL-overexpressing membranes treated with vehicle (DMSO) as a 100% activity reference point. The data was exported to GraphPad Prism 5.0 and analysed in a non-linear dose-response analysis with variable slope.
Compound `C[C@H]1[C@H](C)N(c2cccc(Cl)c2)CCN1C(=O)c1ccc([S+]([O-])CC(=O)c2ccnnc2)c(Cl)c1` (mixture of isomers) [Example 96, (±) 2-((2-Chloro-4-(4-(3-chlorophenyl)-trans-2,3-dimethylpiperazine-1-carbonyl)phenyl)sulfinyl)-1-(pyridazin-4-yl)ethan-1-one] has an IC50 of 708 nM. For `CCOC(=O)C[S+]([O-])c1ccc(C(=O)N2CCN(c3cccc(Cl)c3)CC2C)cc1F` (stereo not drawn) [Example 44, Ethyl 2-((4-(4-(3-chlorophenyl)-2-methylpiperazine-1-carbonyl)-2-fluorophenyl)sulfinyl)acetate], the IC50 was 27.5 nM. Compound `CCOC(=O)C[S+]([O-])c1c(F)cc(C(=O)N2CCN(c3cccc(Cl)c3)[C@H](C)C2)cc1F` (stereo partly drawn) [Example 106, Ethyl 2-((4-((R)-4-(3-chlorophenyl)-3-methylpiperazine-1-carbonyl)-2,6-difluorophenyl)sulfinyl)acetate] has an IC50 of 282 nM. Compound `C[C@H]1[C@H](C)N(c2cccc(Cl)c2)CCN1C(=O)c1ccc([S+]([O-])CC(=O)c2cccnn2)c(Cl)c1` (mixture of isomers) [Example 88, (±) 2-((2-Chloro-4-(4-(3-chlorophenyl)-trans-2,3-dimethylpiperazine-1-carbonyl)phenyl)sulfinyl)-1-(pyridazin-3-yl)ethan-1-one] has an IC50 of 251 nM. Compound `CCOC(=O)C[S+]([O-])c1ccc(CN2CCN(c3cccc(Cl)c3)[C@H](C)[C@H]2C)cc1Cl` (mixture of isomers) [Example 54, (±) Ethyl 2-((2-chloro-4-((4-(3-chlorophenyl)-trans-2,3-dimethylpiperazin-1-yl)methyl)phenyl)sulfinyl)acetate] has an IC50 of 6.17 nM. Work on `C[C@H]1[C@H](C)N(c2cccc(Cl)c2)CCN1C(=O)c1ccc([S+]([O-])CC(=O)c2cc(F)cc(F)c2)c(Cl)c1` (mixture of isomers) [Example 89, (±) 2-((2-Chloro-4-(4-(3-chlorophenyl)-trans-2,3-dimethylpiperazine-1-carbonyl)phenyl)sulfinyl)-1-(3,5-difluorophenyl)ethan-1-one] yielded an IC50 of 2090 nM. `C[C@H]1[C@H](C)N(c2cccc(Cl)c2)CCN1C(=O)c1ccc([S+]([O-])CC(=O)c2ccccc2F)c(Cl)c1` (mixture of isomers) [Example 95, (±) 2-((2-Chloro-4-(4-(3-chlorophenyl)-trans-2,3-dimethylpiperazine-1-carbonyl)phenyl)sulfinyl)-1-(2-fluorophenyl)ethan-1-one] was tested, and the IC50 was 1620 nM. For `C[C@H]1[C@H](C)N(c2cccc(Cl)c2)CCN1C(=O)c1ccc([S+]([O-])CC(=O)c2ccc(Cl)c(C(F)(F)F)c2)c(Cl)c1` (mixture of isomers) [Example 91, (±) 1-(4-Chloro-3-(trifluoromethyl)phenyl)-2-((2-chloro-4-(4-(3-chlorophenyl)-trans-2,3-dimethyl-piperazine-1-carbonyl)-phenyl)sulfinyl)ethan-1-one], the IC50 was > 10000 nM. With `CCOC(=O)C[S+]([O-])c1ccc(C(=O)N2CCN(c3ccc(C(F)(F)F)cc3)CC2)cc1[N+](=O)[O-]` (stereo not drawn) [Example 16, Ethyl 2-((2-nitro-4-(4-(4-(trifluoromethyl)phenyl)piperazine-1-carbonyl)phenyl)sulfinyl)acetate] the IC50 was 589 nM. For `CCOC(=O)C[S+]([O-])c1ccc(C(=O)N2CCN(c3cccc(C)c3)[C@H](C)C2)cc1[N+](=O)[O-]` (stereo partly drawn) [Example 3, Ethyl 2-((4-((R)-3-methyl-4-(m-tolyl)piperazine-1-carbonyl)-2-nitrophenyl)sulfinyl)acetate], the IC50 was 195 nM. For `Cc1cnc(C(=O)C[S+]([O-])c2ccc(C(=O)N3CCN(c4cccc(Cl)c4)[C@@H](C)[C@@H]3C)cc2Cl)o1` (mixture of isomers) [Example 76, (±) 2-((2-Chloro-4-(4-(3-chlorophenyl)-trans-2,3-dimethylpiperazine-1-carbonyl)phenyl)sulfinyl)-1-(5-methyloxazol-2-yl)ethan-1-one], the IC50 was 380 nM. `CCOC(=O)C[S+]([O-])c1ccc(C(=O)N2CCN(c3cncc(Cl)c3)[C@@H](C)[C@@H]2C)cc1Cl` (mixture of isomers) [Example 68, (±) Ethyl 2-((2-chloro-4-(-4-(5-chloropyridin-3-yl)-trans-2,3-dimethylpiperazine-1-carbonyl)phenyl)sulfinyl)acetate] gave an IC50 of 20.9 nM.
